pIC50: −log10 of the molar value.
Key:
[1] = tested on: Human peripheral blood mononuclear cells (PBMC); test: TNF-α release from LPS-stimulated PBMC; type: cell-based; conditions: Lipopolysaccharide 1 microg/ml, 18 hours, AlphaLISA, read-out: TNF-α IC50 range
In short: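 Thawed human PBMC in serum-free buffer with 0.5% human serum albumin were stimulated with 1 microg/ml LPS alongside titrated compound for 18 h at 37 °C. Supernatant TNFα was measured by AlphaLISA at 615 nm, and IC50 was derived relative to LPS-only and 10 microM reference PDE4 inhibitor controls.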

[2] = biological target: human PDE4D catalytic domain (UniProt no. Q08499 [S380-L740]) (Homo sapiens (Human), UniProt Q08499); test: PDE4 assay (TR-FRET, cAMP hydrolysis); type: biochemical; conditions: read-out: PDE4 IC50 range
Chain of human PDE4D catalytic domain (Q08499 380-740): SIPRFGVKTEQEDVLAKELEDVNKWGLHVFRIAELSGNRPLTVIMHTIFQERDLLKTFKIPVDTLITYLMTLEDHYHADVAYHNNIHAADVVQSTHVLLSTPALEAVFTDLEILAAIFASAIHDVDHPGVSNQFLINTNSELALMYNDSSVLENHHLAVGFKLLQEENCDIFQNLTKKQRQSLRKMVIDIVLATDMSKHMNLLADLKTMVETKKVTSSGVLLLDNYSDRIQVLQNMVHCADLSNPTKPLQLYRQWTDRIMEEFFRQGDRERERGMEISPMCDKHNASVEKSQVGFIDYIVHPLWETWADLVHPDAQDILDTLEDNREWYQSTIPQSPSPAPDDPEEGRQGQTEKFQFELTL
In short: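 The human PDE4D catalytic domain (S380-L740) was incubated with unlabelled plus FAM-labelled cAMP and titrated compound, briefly. Product AMP was detected by Tb-nanoparticle TR-FRET. IC50 (nM) came from Tb-normalized signal scaled between DMSO and 10 microM reference-inhibitor controls.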

Row | SMILES | pIC50 [1] | pIC50 [2]
1 | Cc1cc(C(=O)OC2CN(c3nc4c(c(N(C)C5CCOCC5)n3)[S+](O)CC4)C2)cc(C)n1 (stereo not shown) [Example 41, [1-[4-[methyl(tetra-hydropyran-4-yl)amino]-5-oxido-6,7-dihydro-thieno[3,2-d]pyrimidin-5-ium-2-yl]azetidin-3-yl] 2,6-dimethylpyridine-4-carboxylate] | > 7.00 | > 7.00
2 | COc1ccc(C(=O)OC2CN(c3nc4c(c(N(C)C5CCOCC5)n3)[S+]([O-])CC4)C2)cc1 (stereo not shown) [Example 42, [1-[4-[methyl(tetra-hydropyran-4-yl)amino]-5-oxido-6,7-dihydro-thieno[3,2-d]pyrimidin-5-ium-2-yl]azetidin-3-yl] 4-methoxybenzoate] | > 7.00 | > 7.00
3 | COc1cccc(C(=O)OC2CN(c3nc4c(c(N(C)C5CCOCC5)n3)[S+](O)CC4)C2)c1 (stereo not shown) [Example 43, [1-[4-[methyl(tetra-hydropyran-4-yl)amino]-5-oxido-6,7-dihydro-thieno[3,2-d]pyrimidin-5-ium-2-yl]azetidin-3-yl] 3-methoxybenzoate] | > 7.00 | > 7.00
4 | CN(c1nc(N2CC(OC(=O)CCS(C)(=O)=O)C2)nc2c1[S+]([O-])CC2)C1CCOCC1 (stereo not shown) [Example 44] | 6.30 to 7.00 | 6.30 to 7.00
5 | CCc1cc(C(=O)OC2CN(c3nc4c(c(N(C)C5CCOCC5)n3)[S+]([O-])CC4)C2)nn1C (stereo not shown) [Example 45, [1-[4-[methyl(tetra-hydropyran-4-yl)amino]-5-oxido-6,7-dihydro-thieno[3,2-d]pyrimidin-5-ium-2-yl]azetidin-3-yl] 5-ethyl-1-methyl-pyrazole-3-carboxylate] | > 7.00 | > 7.00
6 | CCc1nc(C(=O)OC2CN(c3nc4c(c(N(C)C5CCOCC5)n3)[S+](O)CC4)C2)cs1 (stereo not shown) [Example 46, [1-[4-[methyl(tetra-hydropyran-4-yl)amino]-5-oxido-6,7-dihydro-thieno[3,2-d]pyrimidin-5-ium-2-yl]azetidin-3-yl] 2-ethylthiazole-4-carboxylate] | > 7.00 | > 7.00
7 | CC(=O)c1cccc(C(=O)OC2CN(c3nc4c(c(N(C)C5CCOCC5)n3)[S+](O)CC4)C2)c1 (stereo not shown) [Example 47, [1-[4-[methyl(tetra-hydropyran-4-yl)amino]-5-oxido-6,7-dihydro-thieno[3,2-d]pyrimidin-5-ium-2-yl]azetidin-3-yl] 3-acetylbenzoate] | > 7.00 | > 7.00
8 | CC(=O)c1ccc(C(=O)OC2CN(c3nc4c(c(N(C)C5CCOCC5)n3)[S+](O)CC4)C2)cc1 (stereo not shown) [Example 48, [1-[4-[methyl(tetra-hydropyran-4-yl)amino]-5-oxido-6,7-dihydro-thieno[3,2-d]pyrimidin-5-ium-2-yl]azetidin-3-yl] 4-acetylbenzoate] | > 7.00 | > 7.00
9 | CC(=O)N1CCC(C(=O)OC2CN(c3nc4c(c(N(C)C5CCOCC5)n3)[S+](O)CC4)C2)CC1 (stereo not shown) [Example 49, [1-[4-[methyl(tetra-hydropyran-4-yl)amino]-5-oxido-6,7-dihydro-thieno[3,2-d]pyrimidin-5-ium-2-yl]azetidin-3-yl] 1-acetylpiperidine-4-carboxylate] | > 7.00 | > 7.00
10 | CN(c1nc(N2CC(OC(=O)C3CCS(=O)(=O)CC3)C2)nc2c1[S+](O)CC2)C1CCOCC1 (stereo not shown) [Example 50, [1-[4-[methyl(tetra-hydropyran-4-yl)amino]-5-oxido-6,7-dihydro-thieno[3,2-d]pyrimidin-5-ium-2-yl]azetidin-3-yl] 1,1-dioxothiane-4-carboxylate] | 6.30 to 7.00 | 6.30 to 7.00
11 | CNC(=O)c1ccc(C(=O)OC2CN(c3nc4c(c(N(C)C5CCOCC5)n3)[S+](O)CC4)C2)cc1 (stereo not shown) [Example 51, [1-[4-[methyl(tetra-hydropyran-4-yl)amino]-5-oxido-6,7-dihydro-thieno[3,2-d]pyrimidin-5-ium-2-yl]azetidin-3-yl] 4-(methylcarbamoyl)-benzoate] | > 7.00 | > 7.00
12 | COC(=O)N1CCC(C(=O)OC2CN(c3nc4c(c(N(C)C5CCOCC5)n3)[S+](O)CC4)C2)CC1 (stereo not shown) [Example 52, O1-methyl O4-[1-[4-[methyl(tetrahydro-pyran-4-yl)amino]-5-oxido-6,7-dihydro-thieno[3,2-d]pyrimidin-5-ium-2-yl]azetidin-3-yl] piperidine-1,4-dicarboxylate] | > 7.00 | > 7.00
13 | CN(C)C(=O)c1ccc(C(=O)OC2CN(c3nc4c(c(N(C)C5CCOCC5)n3)[S+](O)CC4)C2)cc1 (stereo not shown) [Example 53, [1-[4-[methyl(tetra-hydropyran-4-yl)amino]-5-oxido-6,7-dihydro-thieno[3,2-d]pyrimidin-5-ium-2-yl]azetidin-3-yl] 4-(dimethylcarbamoyl)-benzoate] | > 7.00 | > 7.00
14 | CN(c1nc(N2CC(OC(=O)c3ccc(S(C)(=O)=O)cc3)C2)nc2c1[S+](O)CC2)C1CCOCC1 (stereo not shown) [Example 54, [1-[4-[methyl(tetra-hydropyran-4-yl)amino]-5-oxido-6,7-dihydro-thieno[3,2-d]pyrimidin-5-ium-2-yl]azetidin-3-yl] 4-methylsulfonyl-benzoate] | > 7.00 | > 7.00
15 | CN(C)C(=O)N1CCC(C(=O)OC2CN(c3nc4c(c(N(C)C5CCOCC5)n3)[S+](O)CC4)C2)CC1 (stereo not shown) [Example 55, [1-[4-[methyl(tetra-hydropyran-4-yl)amino]-5-oxido-6,7-dihydro-thieno[3,2-d]pyrimidin-5-ium-2-yl]azetidin-3-yl] 1-(dimethylcarbamoyl)-piperidine-4-carboxylate] | > 7.00 | > 7.00
16 | CCS(=O)(=O)c1cccc(C(=O)OC2CN(c3nc4c(c(N(C)C5CCOCC5)n3)[S+]([O-])CC4)C2)c1 (stereo not shown) [Example 56, [1-[4-[methyl(tetra-hydropyran-4-yl)amino]-5-oxido-6,7-dihydro-thieno[3,2-d]pyrimidin-5-ium-2-yl]azetidin-3-yl] 3-ethylsulfonylbenzoate] | > 7.00 | > 7.00
17 | CCS(=O)(=O)c1ccc(C(=O)OC2CN(c3nc4c(c(N(C)C5CCOCC5)n3)[S+]([O-])CC4)C2)cc1 (stereo not shown) [Example 57, [1-[4-[methyl(tetra-hydropyran-4-yl)amino]-5-oxido-6,7-dihydro-thieno[3,2-d]pyrimidin-5-ium-2-yl]azetidin-3-yl] 4-ethylsulfonylbenzoate] | > 7.00 | > 7.00
18 | CNS(=O)(=O)c1ccc(C(=O)OC2CN(c3nc4c(c(N(C)C5CCOCC5)n3)[S+]([O-])CC4)C2)cc1 (stereo not shown) [Example 58, [1-[4-[methyl(tetra-hydropyran-4-yl)amino]-5-oxido-6,7-dihydro-thieno[3,2-d]pyrimidin-5-ium-2-yl]azetidin-3-yl] 4-(methylsulfamoyl)-benzoate] | > 7.00 | > 7.00
19 | CC(C)S(=O)(=O)c1cccc(C(=O)OC2CN(c3nc4c(c(N(C)C5CCOCC5)n3)[S+](O)CC4)C2)c1 (stereo not shown) [Example 59, [1-[4-[methyl(tetra-hydropyran-4-yl)amino]-5-oxido-6,7-dihydro-thieno[3,2-d]pyrimidin-5-ium-2-yl]azetidin-3-yl] 3-isopropylsulfonyl-benzoate] | > 7.00 | > 7.00
20 | CC(C)S(=O)(=O)c1ccc(C(=O)OC2CN(c3nc4c(c(N(C)C5CCOCC5)n3)[S+]([O-])CC4)C2)cc1 (stereo not shown) [Example 60, [1-[4-[methyl(tetra-hydropyran-4-yl)amino]-5-oxido-6,7-dihydro-thieno[3,2-d]pyrimidin-5-ium-2-yl]azetidin-3-yl] 4-isopropylsulfonyl-benzoate] | > 7.00 | > 7.00
21 | CN(c1nc(N2CC(OC(=O)c3ccc(C(=O)N4CCOCC4)cc3)C2)nc2c1[S+](O)CC2)C1CCOCC1 (stereo not shown) [Example 61, [1-[4-[methyl(tetra-hydropyran-4-yl)amino]-5-oxido-6,7-dihydro-thieno[3,2-d]pyrimidin-5-ium-2-yl]azetidin-3-yl] 4-(morpholine-4-carbonyl)benzoate] | > 7.00 | > 7.00
22 | CN(c1nc(N2CC(OC(=O)c3ccc(S(=O)(=O)C4CCCC4)cc3)C2)nc2c1[S+]([O-])CC2)C1CCOCC1 (stereo not shown) [Example 62, [1-[4-[methyl(tetra-hydropyran-4-yl)amino]-5-oxido-6,7-dihydro-thieno[3,2-d]pyrimidin-5-ium-2-yl]azetidin-3-yl] 4-cyclopentylsulfonyl-benzoate] | > 7.00 | > 7.00
23 | CN(c1nc(N2CC(OC(=O)c3cccnc3)C2)nc2c1[S@+](O)CC2)C1CCOCC1 [Example 63, [1-[(5R)-4-[methyl-(tetrahydropyran-4-yl)amino]-5-oxido-6,7-dihydrothieno[3,2-d]pyrimidin-5-ium-2-yl]azetidin-3-yl] pyridine-3-carboxylate] | > 7.00 | 6.30 to 7.00
24 | Cc1ccc(C(=O)OC2CN(c3nc4c(c(N(C)C5CCOCC5)n3)[S@+](O)CC4)C2)cc1 [Example 64, [1-[(5R)-4-[methyl-(tetrahydropyran-4-yl)amino]-5-oxido-6,7-dihydrothieno[3,2-d]pyrimidin-5-ium-2-yl]azetidin-3-yl] 4-methylbenzoate] | > 7.00 | > 7.00
25 | O=C(OC1CN(c2nc3c(c(NC4CC5(COC5)C4)n2)[S+](O)CC3)C1)c1cscn1 (stereo not shown) [Example 66, [1-[4-(6-oxaspiro[3.3]-heptan-2-ylamino)-5-oxido-6,7-dihydrothieno-[3,2-d]pyrimidin-5-ium-2-yl]azetidin-3-yl] thiazole-4-carboxylate] | > 7.00 | > 7.00
26 | O=C(OC1CN(c2nc3c(c(NC4CC5(COC5)C4)n2)[S+]([O-])CC3)C1)C1CCOCC1 (stereo not shown) [Example 67, [1-[4-(6-oxaspiro[3.3]-heptan-2-ylamino)-5-oxido-6,7-dihydro-thieno[3,2-d]pyrimidin-5-ium-2-yl]azetidin-3-yl] tetrahydropyran-4-carboxylate] | > 7.00 | > 7.00

Source: patent US11365204B2, “Substituted dihydrothienopyrimidines and their use as phosphodiesterase inhibitors” (UNION therapeutics A/S, priority 2017, dated 2022)
